Assay results reported in US20230292743A1, “Method for increasing the lifespan and motility of animal sperm using an inhibitor of Slo3 potassium channel” (IMV TECHNOLOGIES, priority 2017, published 2023).

Test system: mouse sperm
Assay: Ability of mouse sperm to fertilize oocytes after incubation in capacitation medium (in vitro fertilization, 2-cell embryos)
Format: cell-based
Conditions: vs control; for percentage of 2-cell embryos vs mature MII oocytes at 24 h post fertilization: 12 hours incubation prior fertilization; for percentage of 2-cell embryos vs mature oocytes at 48 h post fertilization: 5 μM clofilium in M16-BSA medium
Procedure: Mouse sperm was obtained by manual trituration of caudae epididymides from male and were allowed to swim in M2 medium (from Sigma) for 10 minutes. The M2 medium composition in g/L is as follows: CaCl2 0.25; MgSO4 (anhydrous) 0.1649; KCl 0.35635; K2HPO4 0.162; NaHCO3 0.35; NaCl 5.53193; Albumin, Bovine Fraction V 4.0; D-Glucose 1.0; HEPES (for 4-(2-HydroxyEthyl)-1-Piperazine EthaneSulfonic acid)×Na 5.42726; Pyruvic Acid×Na 0.0363; DL-Lactic Acid×Na 2.95). Sperm were then capacitated in M16 medium (from Sigma) with 2% fatty acid-free BSA (for Bovine Serum Albumin) (named “M16-BSA medium”) at 37° C. in a 5% v/v CO2 incubator for different times as specified. M16 medium is a commercial and commonly used medium for in vitro fertilization and culture of preimplantation stage embryos. Oocytes were collected from mature OF1 females, synchronized with 5 units of pregnant mare serum gonadotrophin (PMSG) and 5 units of human chorionic gonadotrophin (HCG). Cumulus were harvested directly from the ampulla and sperm were injected into the M16 droplets containing the cumulus. 1. The first test related to the ability of mouse sperm to fertilize oocytes when incubated prior fertilization in a capacitation medium containing clofilium with regard to a control medium, which is the same capacitation medium but without clofilium. The capacitation medium was M16-BSA medium. The control medium was the M16-BSA medium containing the sperm. It was compared to the same medium further including clofilium at a concentration of 5 μM (in the M16-BSA medium containing the sperm). Sperm was incubated in M16-BSA medium with or without clofilium and then added to M16 droplets containing the cumulus comprising the oocytes. Two-cell embryos were counted at 48 h post insemination (n=3). The number of oocytes reaching the two-cell stage were counted at 48 hours after fertilization. Two different concentrations of clofilium were tested: 0.2 μM of clofilium and 5 μM of clofilium (in the M16-BSA medium containing the sperm). The sperm incubation time prior fertilization was 12 hours. The test related to the ability of mouse sperm to fertilize oocytes, sperm being incubated prior fertilization in a medium containing quinidine with regard to a control medium, without quinidine. The control medium was the M16-BSA medium containing the sperm (“control”). It was compared to the same medium further including quinidine, at various concentrations 5 μM quinidine (“5 μM quinidine”), 10 μM quinidine (“10 μM quinidine”), 25 μM quinidine (“25 μM quinidine”) and 100 μM quinidine (“100 μM quinidine”).

SMILES: CCCCCCC[N+](CC)(CC)CCCCc1ccc(Cl)cc1 [clofilium]
- percentage of 2-cell embryos vs mature MII oocytes at 24 h post fertilization (0.2 μM clofilium): improves the mouse in vitro fertilization outcome
- percentage of 2-cell embryos vs mature oocytes at 48 h post fertilization (3 h incubation period prior fertilization): not significantly different than that of control
- percentage of 2-cell embryos vs mature oocytes at 48 h post fertilization (long incubation periods (>3 hours) prior fertilization): higher number of 2-cell stages than what was observed with the control
- percentage of 2-cell embryos vs mature oocytes at 48 h post fertilization (short incubation periods (<3 hours) prior fertilization): positive effect
- percentage of 2-cell embryos vs mature MII oocytes at 24 h post fertilization (5 μM clofilium): potent
